# Data published in patent publication US8895504B2, “Amylin derivatives” (priority 2008, dated 2014).
# *1 amine or outer side, *2 acyl side, *3 side chain or, on linkers, in order; H or OH if unused. Where a SMILES comes first, the peptide text is derived from it. Bridges are numbered along the chain shown (N, C = ends). The star is where a group is joined. C20 diacid = O=C(O)CCCCCCCCCCCCCCCCCCC(=O)*; γGlu = O=C(O)[C@H](CCC(=O)[*:2])N[*:1]; AEEA = NCCOCCOCC(=O)O
# Legend:
# [1] = Assay (V) PK - determination of T½ in mini-pig; assay type: in vivo; details: minipig, sc; terminal plasma half-life, subcutaneous, approx 2 nmol/kg, male Göttingen mini-pigs
# Description: Assay (V) PK—Determination OF T½ in Mini-Pig
# T½ is the terminal half-life=ln 2/λz of a compound in plasma. λz is the first order rate constant associated with the terminal (log-linear) portion of the plasma concentration-time curve and is estimated by linear regression of time vs. log concentration.
# T½ values of the amylin analogues of the invention is determined by pharmacokinetic studies in male Göttingen mini-pigs from Ellegaard Göttingen Minipigs ApS and the principles of laboratory animal care are followed.
# An acclimatization period of approximately 6-10 days was allowed before the animals entered the study. At start of the acclimatization period the mini-pigs were about 5 to 12 months old and in the weight range of 7-35 kg. The mini-pigs had two central venous catheters inserted which were used for blood sampling.
# The studies were conducted in an animal room which was illuminated to give a cycle of approx 12 hours light and 12 hours darkness. The animals were housed individually.
# The animals had free access to domestic quality drinking water during the study, but were typically fasted from overnight before dosing until approx 6-12 hours after dosing. The animals were weighed on arrival and on the days of dosing.
# In the present studies the test substances were administered subcutaneously in approx 2 nmol/kg dose. The animals received a single subcutaneous injection. The subcutaneous injection was given on the right side of the neck, approximately 5-7 cm from the ear and 7-9 cm from the middle of the neck. The injections were given with a stopper on the needle, allowing approx 0.5 cm of the needle to be introduced. Each test substance was given to typically three but in some cases two or four animals.
# A full plasma concentration-time profile, employing 12-16 sampling points, was obtained from each animal. In example blood samples were collected according to the following schedule:
# After subcutaneous administration:
# Predose (0), 0.5, 1, 2, 4, 6, 8, 12, 24, 48, 72, 96, 120, 168 and 240 hours after injection. In some cases also additional blood samples up to 288 hours post injection were taken.
# At each sampling time, 0.5 to 2 ml of blood was drawn from each animal. The blood samples were taken via the central venous catheter.
# The blood samples were collected into EDTA test tubes (i.e. Sarstedt Micro tube 1.3 mL K3E). Blood samples were kept on ice for max 20 min. before centrifugation. Plasma was separated using centrifugation (i.e. at 4° C., 10 min., 1500 G) and was immediately transferred to Micronic tubes. Approximately 200 μl plasma was transferred to each Micronic tube. The plasma was stored at −20° C. until assayed. The plasma samples were assayed for the content of amylin using an ELISA assay.
# The plasma concentration-time profiles were analysed by a non-compartmental pharmacokinetic analysis (NCA) using WinNonlin Professional 5.0 (Pharsight Inc., Mountain View, Calif., USA). NCA was performed using the individual plasma concentration-time profiles from each animal. T½ is the terminal half-life=ln 2/λz and was determined from λz, the first order rate constant associated with the terminal (log-linear) portion of the curve, estimated by linear regression of time vs. log concentration.
# ELISA Plasma Assay for Amylin Quantification
# The human amylin ELISA is a monoclonal antibody-based sandwich immunoassay for determining amylin levels in human plasma. The capture antibody recognizes human amylin, amylin acid (deamidated amylin), a 1-20 fragment of amylin, but not reduced amylin.
# The detection antibody binds to reduced or unreduced human amylin but not amylin acid and is complexed with streptavidin-alkaline phosphatase. The substrate, 4-methylumbelliferyl phosphate, is applied to the completed sandwich and the fluorescent signal, monitored at 355 nm/460 nm, is proportional to the amount of amylin present in the sample.
# [2] = target: T1, Amylin 3(a) receptor (human calcitonin receptor (CTa) and RAMP-3) (Homo sapiens, UniProt O60896+P30988); assay: Luciferase assay (III), BHK Amylin 3(a)//CRE-luc cells; assay type: cell-based; details: BHK cells with Amylin 3(a) receptor and CRE luciferase reporter, 4 hours incubation; read-out: Potency Luciferase
# T1 construct: expressed in transfected cells; host or cells: BHK570 cells, stably transfected with a CRE-luciferase reporter
# Outline: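 Read-out is CRE-driven luciferase luminescence, taken 30 min after LucLite addition at room temperature. Compounds were incubated 4 h at 37° C in assay medium (10% FBS, 10 mM Hepes, pH 7,4). The cell line is BHK570 co-transfected with human calcitonin receptor CTa and RAMP-3, seeded overnight before use.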
# T1 sequence (O60896 24-148): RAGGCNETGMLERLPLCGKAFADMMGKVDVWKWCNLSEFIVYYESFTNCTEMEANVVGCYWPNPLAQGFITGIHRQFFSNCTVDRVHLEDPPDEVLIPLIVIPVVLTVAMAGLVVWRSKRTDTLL
# T1 sequence (P30988 25-474): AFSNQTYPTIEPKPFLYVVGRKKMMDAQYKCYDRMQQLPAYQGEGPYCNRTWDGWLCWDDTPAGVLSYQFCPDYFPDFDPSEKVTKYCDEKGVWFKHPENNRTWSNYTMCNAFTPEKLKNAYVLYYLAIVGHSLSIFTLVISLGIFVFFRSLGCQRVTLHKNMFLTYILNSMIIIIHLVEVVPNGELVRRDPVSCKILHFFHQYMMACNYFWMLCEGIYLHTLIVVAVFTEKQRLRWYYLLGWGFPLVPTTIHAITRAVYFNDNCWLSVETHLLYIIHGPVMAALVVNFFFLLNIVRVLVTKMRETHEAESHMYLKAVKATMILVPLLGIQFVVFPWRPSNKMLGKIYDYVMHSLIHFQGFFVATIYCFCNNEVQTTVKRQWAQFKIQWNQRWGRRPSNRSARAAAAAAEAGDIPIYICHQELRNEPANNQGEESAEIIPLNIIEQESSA
half-life [1] [h],EC50 [2] [pM],Structure (SMILES)
38,200,"CC[C@H](C)[C@H](NC(=O)[C@@H]1CCCN1C(=O)CNC(=O)[C@H](Cc1ccccc1)NC(=O)[C@H](CC(N)=O)NC(=O)[C@H](CC(N)=O)NC(=O)[C@H](CO)NC(=O)[C@H](CO)NC(=O)[C@H](Cc1c[nH]cn1)NC(=O)[C@H](Cc1c[nH]cn1)NC(=O)[C@H](CC(C)C)NC(=O)[C@H](Cc1ccccc1)NC(=O)[C@H](CC(N)=O)NC(=O)[C@H](C)NC(=O)[C@H](CC(C)C)NC(=O)[C@H](CCCNC(=N)N)NC(=O)[C@H](CCC(N)=O)NC(=O)[C@@H](NC(=O)[C@H](C)NC(=O)[C@@H]1CSSC[C@H](NC(=O)[C@H](CCCNC(=N)N)NC(=O)[C@H](CCCNC(=N)N)NC(=O)[C@H](Cc2c[nH]cn2)NC(=O)[C@H](CCC(=O)O)NC(=O)CC[C@H](NC(=O)CCCCCCCCCCCCCCCCCCC(=O)O)C(=O)O)C(=O)N[C@@H](CC(N)=O)C(=O)N[C@@H]([C@@H](C)O)C(=O)N[C@@H](C)C(=O)N[C@@H]([C@@H](C)O)C(=O)N1)[C@@H](C)O)C(=O)N[C@@H](CC(C)C)C(=O)N1CCC[C@H]1C(=O)N1CCC[C@H]1C(=O)N[C@H](C(=O)N[C@@H](CC(N)=O)C(=O)N[C@H](C(=O)NCC(=O)N[C@@H](CO)C(=O)N[C@@H](CC(N)=O)C(=O)N[C@H](C(=O)N[C@@H](Cc1ccc(O)cc1)C(N)=O)[C@@H](C)O)C(C)C)[C@@H](C)O [Example 55, N-alpha-[(S)-4-Carboxy-4-(19-carboxynonadecanoylamino)butyryl]-Glu-His-Arg-[Arg1,His17]-pramlintide] ({C20 diacid-γGlu}-EHRRCNTATCATQRLANFLHHSSNNFGPILPPTNVGSNTY-NH2; disulfide 5-10)"
66,90,"CC[C@H](C)[C@H](NC(=O)[C@@H]1CCCN1C(=O)CNC(=O)[C@H](Cc1ccccc1)NC(=O)[C@H](CC(N)=O)NC(=O)[C@H](CC(N)=O)NC(=O)[C@H](CO)NC(=O)[C@H](CO)NC(=O)[C@H](Cc1c[nH]cn1)NC(=O)[C@H](Cc1c[nH]cn1)NC(=O)[C@H](CC(C)C)NC(=O)[C@H](Cc1ccccc1)NC(=O)[C@H](CC(N)=O)NC(=O)[C@H](C)NC(=O)[C@H](CC(C)C)NC(=O)[C@H](CCCNC(=N)N)NC(=O)[C@H](CCC(N)=O)NC(=O)[C@@H](NC(=O)[C@H](C)NC(=O)[C@@H]1CSSC[C@H](NC(=O)[C@H](Cc2c[nH]cn2)NC(=O)COCCOCCNC(=O)CC[C@H](NC(=O)CCCCCCCCCCCCCCCCCCC(=O)O)C(=O)O)C(=O)N[C@@H](CC(N)=O)C(=O)N[C@@H]([C@@H](C)O)C(=O)N[C@@H](C)C(=O)N[C@@H]([C@@H](C)O)C(=O)N1)[C@@H](C)O)C(=O)N[C@@H](CC(C)C)C(=O)N1CCC[C@H]1C(=O)N1CCC[C@H]1C(=O)N[C@H](C(=O)N[C@@H](CC(N)=O)C(=O)N[C@H](C(=O)NCC(=O)N[C@@H](CO)C(=O)N[C@@H](CC(N)=O)C(=O)N[C@H](C(=O)N[C@@H](Cc1ccc(O)cc1)C(N)=O)[C@@H](C)O)C(C)C)[C@@H](C)O [Example 37, N-alpha-[2-(2-{2-[4-(S)-Carboxy-4-(19-carboxynonadecanoylamino)butyrylamino]ethoxy}ethoxy)acetyl]-[His1,His17]-pramlintide] ({C20 diacid-γGlu-AEEA}-HCNTATCATQRLANFLHHSSNNFGPILPPTNVGSNTY-NH2; disulfide 2-7)"
53,100,"CC[C@H](C)[C@H](NC(=O)[C@@H]1CCCN1C(=O)CNC(=O)[C@H](Cc1ccccc1)NC(=O)[C@H](CC(N)=O)NC(=O)[C@H](CC(N)=O)NC(=O)[C@H](CO)NC(=O)[C@H](CO)NC(=O)[C@H](Cc1c[nH]cn1)NC(=O)[C@H](Cc1c[nH]cn1)NC(=O)[C@H](CC(C)C)NC(=O)[C@H](Cc1ccccc1)NC(=O)[C@H](CC(N)=O)NC(=O)[C@H](C)NC(=O)[C@H](CC(C)C)NC(=O)[C@H](CCCNC(=N)N)NC(=O)[C@H](CCC(N)=O)NC(=O)[C@@H](NC(=O)[C@H](C)NC(=O)[C@@H]1CSSC[C@H](NC(=O)[C@H](Cc2c[nH]cn2)NC(=O)[C@H](Cc2c[nH]cn2)NC(=O)[C@H](Cc2c[nH]cn2)NC(=O)[C@H](CCC(=O)O)NC(=O)CC[C@H](NC(=O)CCCCCCCCCCCCCCCCCCC(=O)O)C(=O)O)C(=O)N[C@@H](CC(N)=O)C(=O)N[C@@H]([C@@H](C)O)C(=O)N[C@@H](C)C(=O)N[C@@H]([C@@H](C)O)C(=O)N1)[C@@H](C)O)C(=O)N[C@@H](CC(C)C)C(=O)N1CCC[C@H]1C(=O)N1CCC[C@H]1C(=O)N[C@H](C(=O)N[C@@H](CC(N)=O)C(=O)N[C@H](C(=O)NCC(=O)N[C@@H](CO)C(=O)N[C@@H](CC(N)=O)C(=O)N[C@H](C(=O)N[C@@H](Cc1ccc(O)cc1)C(N)=O)[C@@H](C)O)C(C)C)[C@@H](C)O [Example 54, N-alpha-[(S)-4-Carboxy-4-(19-carboxynonadecanoylamino)butyryl]-Glu-His-His-[His1,His17]-pramlintide] ({C20 diacid-γGlu}-EHHHCNTATCATQRLANFLHHSSNNFGPILPPTNVGSNTY-NH2; disulfide 5-10)"
110,70,"CC[C@H](C)[C@H](NC(=O)[C@@H]1CCCN1C(=O)CNC(=O)[C@H](Cc1ccccc1)NC(=O)[C@H](CC(N)=O)NC(=O)[C@H](CC(N)=O)NC(=O)[C@H](CO)NC(=O)[C@H](CO)NC(=O)[C@H](Cc1c[nH]cn1)NC(=O)[C@H](Cc1c[nH]cn1)NC(=O)[C@H](CC(C)C)NC(=O)[C@H](Cc1ccccc1)NC(=O)[C@H](CC(N)=O)NC(=O)[C@H](C)NC(=O)[C@H](CC(C)C)NC(=O)[C@H](CCCNC(=N)N)NC(=O)[C@H](CCC(N)=O)NC(=O)[C@@H](NC(=O)[C@H](C)NC(=O)[C@@H]1CSSC[C@H](NC(=O)[C@H](Cc2c[nH]cn2)NC(=O)CC[C@H](NC(=O)CCCCCCCCCCCCCCCCCCC(=O)O)C(=O)O)C(=O)N[C@@H](CC(N)=O)C(=O)N[C@@H]([C@@H](C)O)C(=O)N[C@@H](C)C(=O)N[C@@H]([C@@H](C)O)C(=O)N1)[C@@H](C)O)C(=O)N[C@@H](CC(C)C)C(=O)N1CCC[C@H]1C(=O)N1CCC[C@H]1C(=O)N[C@H](C(=O)N[C@@H](CC(N)=O)C(=O)N[C@H](C(=O)NCC(=O)N[C@@H](CO)C(=O)N[C@@H](CC(N)=O)C(=O)N[C@H](C(=O)N[C@@H](Cc1ccc(O)cc1)C(N)=O)[C@@H](C)O)C(C)C)[C@@H](C)O [Example 29, N-alpha-[(S)-4-Carboxy-4-(19-carboxynonadecanoylamino)butyryl]-[His1,His17]-pramlintide] ({C20 diacid-γGlu}-HCNTATCATQRLANFLHHSSNNFGPILPPTNVGSNTY-NH2; disulfide 2-7)"
